The source of these data is patent publication US20130121994A1, “TRIAZOLOPYRIDINE DERIVATIVES” (BAYER INTELLECTUAL PROPERTY GMBH, priority 2009, published 2013).

The assay concerns the target T1, human kinase Mps-1 (Homo sapiens, UniProt P33981).
T1 construct: N-terminally GST-tagged human full length recombinant Mps-1 kinase; GST (N); purchased Invitrogen, Karslruhe, Germany PV4071
T1 sequence (P33981 1-857): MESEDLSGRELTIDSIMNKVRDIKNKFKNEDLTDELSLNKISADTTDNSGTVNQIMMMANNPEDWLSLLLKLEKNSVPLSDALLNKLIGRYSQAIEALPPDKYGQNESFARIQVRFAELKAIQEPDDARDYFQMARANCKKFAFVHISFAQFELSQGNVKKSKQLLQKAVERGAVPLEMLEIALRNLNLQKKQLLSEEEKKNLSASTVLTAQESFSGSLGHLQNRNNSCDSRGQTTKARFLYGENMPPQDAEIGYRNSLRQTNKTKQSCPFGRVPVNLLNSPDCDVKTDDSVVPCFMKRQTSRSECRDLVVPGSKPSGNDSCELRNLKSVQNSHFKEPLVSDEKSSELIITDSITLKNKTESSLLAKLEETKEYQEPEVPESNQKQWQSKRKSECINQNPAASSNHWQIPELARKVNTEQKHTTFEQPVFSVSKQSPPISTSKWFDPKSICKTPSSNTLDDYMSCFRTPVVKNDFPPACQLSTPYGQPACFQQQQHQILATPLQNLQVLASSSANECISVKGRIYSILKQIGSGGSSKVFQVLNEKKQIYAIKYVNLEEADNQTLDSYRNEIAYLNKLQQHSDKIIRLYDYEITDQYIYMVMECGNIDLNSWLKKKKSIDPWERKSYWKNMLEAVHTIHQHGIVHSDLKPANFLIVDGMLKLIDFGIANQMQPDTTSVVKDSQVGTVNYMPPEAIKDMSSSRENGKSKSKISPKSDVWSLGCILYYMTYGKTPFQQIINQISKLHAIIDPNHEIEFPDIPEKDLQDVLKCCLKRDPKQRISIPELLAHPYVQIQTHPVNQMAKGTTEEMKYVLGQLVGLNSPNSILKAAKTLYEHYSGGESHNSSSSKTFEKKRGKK
Nature of the assay: Mps-1 kinase assay (HTRF). It is filed as biochemical. A general note: Time-resolved FRET reads energy transfer from a long-lived donor to a nearby acceptor.

In turn, `CCNC(=O)c1ccc(Nc2nc3ccc(-c4ccc(C(=O)NCC(F)(F)F)cc4)cn3n2)c(OCC)c1` [Example 11.031, 3-ethoxy-N-ethyl-4-[(6-{4-[(2,2,2-trifluoroethyl)carbamoyl]phenyl}[1,2,4]triazolo [1,5-a]pyridin-2-yl)amino]benzamide] returned an IC50 of no more than 1 nM. For `CC(C)(O)CNC(=O)c1ccc(Nc2nc3ccc(-c4cccc(C(=O)NCC(F)(F)F)c4)cn3n2)c(OCC(F)(F)F)c1` [Example 11.096, N-(2-hydroxy-2-methylpropyl)-3-(2,2,2-trifluoroethoxy)-4-[(6-{3-[(2,2,2-trifluoroethyl)carbamoyl]phenyl}[1,2,4]triazolo [1,5-a]pyridin-2-yl)amino]benzamide], the IC50 was no more than 1 nM. The same measure for `CC(C)(C)CC(=O)Nc1ccc(-c2ccc3nc(Nc4ccccc4C#N)nn3c2)cc1` [Example 11.099, N-(4-{2-[(2-cyanophenyl)amino][1,2,4]triazolo[1,5-a]pyridin-6-yl}phenyl)-3,3-dimethylbutanamide]: 18.9 nM; for `COc1cc(C(=O)NCC(C)(C)O)ccc1Nc1nc2ccc(-c3ccc(C(=O)NCC(F)(F)F)cc3)cn2n1` [Example 11.016, N-(2-hydroxy-2-methylpropyl)-3-methoxy-4-[(6-{4-[(2,2,2-trifluoroethyl)carbamoyl]phenyl}[1,2,4]triazolo [1,5-a]pyridin-2-yl)amino]benzamide]: 1.29 nM; for `CCNC(=O)c1ccc(Nc2nc3ccc(-c4cccc(C(=O)NCC(F)(F)F)c4)cn3n2)c(OCC)c1` [Example 11.088, 3-ethoxy-N-ethyl-4-[(6-{3-[(2,2,2-trifluoroethyl)carbamoyl]phenyl}[1,2,4]triazolo [1,5-a]pyridin-2-yl)amino]benzamide]: no more than 1 nM. The same measure for `N#Cc1ccccc1Nc1nc2ccc(-c3cccc(O)c3)cn2n1` [Example 3.17, 2-{[6-(3-hydroxyphenyl)[1,2,4]triazolo[1,5-a]pyridin-2-yl]amino}benzonitrile]: 28 nM; for `COc1cc(C#N)ccc1Nc1nc2ccc(-c3cc(C)c(O)c(C)c3)cn2n1` [Example 1.1, 4-{[6-(4-hydroxy-3,5-dimethylphenyl)[1,2,4]triazolo[1,5-a]pyridin-2-yl]amino}-3-methoxybenzonitrile]: 17 nM. The same measure for `CC(=O)Nc1cccc(-c2ccc3nc(Nc4ccccc4OC(F)(F)F)nn3c2)c1` [Example 2.6, N-[3-(2-{[2-(trifluoromethoxy)phenyl]amino}[1,2,4]tri-azolo[1,5-a]pyridin-6-yl)phenyl]acetamide]: 340 nM; for `N#Cc1ccccc1Nc1nc2ccc(-c3ccc(C(N)=O)cc3)cn2n1` [Example 3.7, 4-{2-[(2-cyanophenyl)amino] [1,2,4]triazolo[1,5-a]pyridin-6-yl}benzamide]: 140 nM; for `COc1cc(C(=O)NC(C)(C)CO)ccc1Nc1nc2ccc(-c3ccc(C(=O)NCC(F)(F)F)c(Cl)c3)cn2n1` [Example 11.026, 2-chloro-4-[2-({4-[(1-hydroxy-2-methylpropan-2-yl)carbamoyl]-2-methoxyphenyl}amino)[1,2,4]triazolo[1,5-a]pyridin-6-yl]-N-(2,2,2-trifluoroethyl)benzamide]: 4.08 nM. `CCN(CC)C(=O)c1ccc(Nc2nc3ccc(-c4ccc(C(=O)NCC(F)(F)F)cc4)cn3n2)cc1` [Example 11.038, N,N-diethyl-4-[(6-{4-[(2,2,2-trifluoroethyl)carbamoyl]phenyl}[1,2,4]triazolo [1,5-a]pyridin-2-yl)amino]benzamide]: 10.5 nM corresponded to half-maximal inhibition (IC50). The same measure for `COc1cc(C#N)ccc1Nc1nc2ccc(-c3cccc(NC(C)=O)c3)cn2n1` [Example 2.12, N-(3-{2-[(4-cyano-2-methoxyphenyl)amino] [1,2,4]triazolo[1,5-a]pyridin-6-yl}phenyl)acetamide]: 200 nM.

Take `CC(C)(C)CCNC(=O)c1cccc(-c2ccc3nc(Nc4ccccc4C#N)nn3c2)c1` [Example 11.055, 3-{2-[(2-cyanophenyl)amino][1,2,4]triazolo[1,5-a]pyridin-6-yl}-N-(3,3-dimethylbutyl)benzamide]: the IC50 came to 9.81 nM. As for `CCOc1cc(C(=O)NCC(C)(C)O)ccc1Nc1nc2ccc(-c3ccc(C(=O)NCC(C)C)cc3)cn2n1` [Example 11.036, 3-ethoxy-N-(2-hydroxy-2-methylpropyl)-4-[(6-{4-[(2-methylpropyl)carbamoyl]phenyl}[1,2,4]triazolo [1,5-a]pyridin-2-yl)amino]benzamide], the IC50 turned out to be 2.58 nM.

The compound `O=C(CCl)Nc1ccc(-c2ccc3nc(Nc4ccccc4C(F)(F)F)nn3c2)cc1` [Example 6.3, 2-chloro-N-[4-(2-{[2-(trifluoromethyl)phenyl]amino}[1,2,4]triazolo[1,5-a]pyridin-6-yl)phenyl]acetamide] gave an IC50 of 220 nM. The compound `CC(C)(C)CNC(=O)c1cccc(-c2ccc3nc(Nc4ccc(C(=O)NCCO)cc4OCC(F)(F)F)nn3c2)c1` [Example 11.091, 4-[(6-{3-[(2,2-dimethylpropyl)carbamoyl]phenyl}[1,2,4]tria-zolo[1,5-a]pyridin-2-yl)amino]-N-(2-hydroxyethyl)-3-(2,2,2-trifluoroethoxy)benzamide] had an IC50 of no more than 1 nM. To `COc1cc(C(=O)NC(C)(C)CO)ccc1Nc1nc2ccc(-c3ccc(C(=O)NCC(F)(F)F)c(F)c3)cn2n1` [Example 11.018, 2-fluoro-4-[2-({4-[(1-hydroxy-2-methylpropan-2-yl)carbamoyl]-2-methoxyphenyl}amino)[1,2,4]triazolo[1,5-a]pyridin-6-yl]-N-(2,2,2-trifluoroethyl)benzamide] belongs 1.03 nM.

As for `CCN(CC)C(=O)c1ccc(Nc2nc3ccc(-c4ccc(C(=O)NCC(C)(C)C)cc4)cn3n2)c(OC)c1` [Example 11.027, 4-[(6-{4-[(2,2-dimethylpropyl)carbamoyl]phenyl}[1,2,4]tria-zolo[1,5-a]pyridin-2-yl)amino]-N,N-diethyl-3-methoxybenzamide], the concentration for half-maximal inhibition (IC50) is 35.8 nM. The same measure for `COc1cccnc1Nc1nc2ccc(-c3cc(C)c(O)c(C)c3)cn2n1` [Example 1.14, 4-{2-[(3-methoxypyridin-2-yl)amino][1,2,4]tri-azolo[1,5-a]pyridin-6-yl}-2,6-dimethylphenol]: 160 nM. Regarding `N#Cc1ccccc1Nc1nc2ccc(-c3ccc4[nH]ccc4c3)cn2n1` [Example 3.21, 2-{[6-(1H-indol-5-yl)[1,2,4]triazolo[1,5-a]pyridin-2-yl]amino}benzonitrile], half-maximal inhibition (IC50) was put at 210 nM.

Take `CCNC(=O)c1ccc(Nc2nc3ccc(-c4cccc(C(=O)NCC(C)(C)C)c4)cn3n2)c(OCC)c1` [Example 11.087, 4-[(6-{3-[(2,2-dimethylpropyl)carbamoyl]phenyl}[1,2,4]tria-zolo[1,5-a]pyridin-2-yl)amino]-3-ethoxy-N-ethylbenzamide]: the IC50 is no more than 1 nM.

Compound `O=C(NCC(F)(F)F)c1ccc(-c2ccc3nc(Nc4cccnc4OCC(F)(F)F)nn3c2)cc1` [Example 11.001, 4-(2-{[2-(2,2,2-trifluoroethoxy)pyridin-3-yl]amino}[1,2,4]triazolo[1,5-a]-pyridin-6-yl)-N-(2,2,2-trifluoroethyl)benzamide] had an IC50 of no more than 1 nM. To `C[C@@H](NC(=O)c1cccc(-c2ccc3nc(Nc4ccccc4C#N)nn3c2)c1)C(C)(C)C` [Example 11.039, 3-{2-[(2-cyanophenyl)amino][1,2,4]triazolo[1,5-a]pyridin-6-yl}-N-[(2R)-3,3-dimethylbutan-2-yl]benzamide] belongs 1.71 nM; to `CC(C)(C)OC(=O)c1ccc(-c2ccc3nc(Nc4ccccc4C#N)nn3c2)cc1` [Example 11.013, tert-butyl 4-{2-[(2-cyanophenyl)amino][1,2,4]triazolo[1,5-a]pyridin-6-yl}benzoate], 1060 nM. The same measure for `N#Cc1ccccc1Nc1nc2ccc(-c3ccccc3)cn2n1` [Example 3.1, 2-[(6-phenyl[1,2,4]triazolo[1,5-a]pyridin-2-yl)amino]benzonitrile]: 860 nM; for `N#Cc1ccccc1Nc1nc2ccc(-c3ccc(N)cc3)cn2n1` [Example 4.2, 2-{[6-(4-aminophenyl)[1,2,4]triazolo[1,5-a]pyridin-2-yl]amino}benzonitrile]: 46 nM. The same measure for `CC(C)(C)NC(=O)c1ccc(Nc2nc3ccc(-c4ccc(C(=O)NCC(F)(F)F)cc4)cn3n2)c(OCC(F)(F)F)c1` [Example 11.002, N-tert-butyl-3-(2,2,2-trifluoroethoxy)-4-[(6-{4-[(2,2,2-trifluoroethyl)-carbamoyl]phenyl}[1,2,4]triazolo[1,5-a]pyridin-2-yl)amino]benzamide]: no more than 1 nM; for `Cc1cc(-c2ccc3nc(Nc4ccccc4OC(F)(F)F)nn3c2)cc(C)c1O` [Example 1.10, 2,6-dimethyl-4-(2-{[2-(trifluoromethoxy)phenyl]amino}[1,2,4]tri-azolo[1,5-a]pyridin-6-yl)phenol]: 140 nM.

Usually IC50 stands for the concentration that gives 50% inhibition. A lower IC50 goes with greater potency.
